Experimental data reported in patent US20220408777A1, “FOOD COMPOSITION FOR PREVENTING AND AM[…] […] NONI AND METHOD FOR PREPARING SAME” (NSTBIO. CO., LTD., priority 2020, published 2022).
Structures can show the parent of a compound that is named as a salt.

Assays:
[1] = system: C57BL/KsJ db/db diabetic mice; assay: Measurement of fasting blood glucose (in vivo efficacy test for blood glucose lowering); conditions: oral once a day, Noni 100 mg/kg, Metformin 200 mg/kg
Method: (§1) An administration sample administered to a diabetic model positive control was a Metformin Tab (metformin hydrochloride, JRP), which is a diabetic drug. A dose was 200 mg/kg body weight of a mouse (denoted as Metformin 200 mg/kg).
(§2) An administration sample administered to a diabetic model fermented noni group was a food composition containing the fermented noni obtained in Example 1. A dose was 100 mg/kg body weight of a mouse (denoted as Noni 100 mg/kg).
(§3) As for the administration method, each administration sample was dissolved in 0.5% carboxymethyl cellulose (CMC) for each dose and orally administered once a day for 6 weeks.
The fasting blood glucose of the experimental animals was measured once a week for 6 weeks using a glucometer. Fasting blood glucose was measured at 1-week (7-day) intervals for 6 weeks (42 days) for each experimental group.

[2] = system: C57BL/KsJ db/db diabetic mice; assay: Oral glucose tolerance test (OGTT); type: in vivo; conditions: db/db mice after 6 weeks oral administration, Noni 100 mg/kg, Metformin 200 mg/kg; for blood glucose decreased (OGTT): glucose 3.0 g/kg oral
Method: as §1, §2, §3
After the completion of oral administration for 6 weeks, an oral glucose tolerance test (OGTT) was performed.
After experimental animals were fasted for 12 hours, fasting blood glucose was measured by collecting blood from the tail vein, and then a 50% glucose solution (3.0 g/kg of B.W) was orally administered to all groups, and after 30 minutes, 60 minutes, 120 minutes and 180 minutes, blood glucose was measured using a glucometer.

`CN(C)C(=N)N=C(N)N` [Metformin, metformin hydrochloride] was tested, and the “decrease in fasting blood glucose” value ([1]; after 6 weeks) was 34%, the fasting blood glucose ([1]; for 1 to 6 weeks, FIG. 2) was “consistently low” and the “AUC value decreased (OGTT area under curve)” value ([2]; compared to db/db control, FIG. 4) was 23.3%. For the same compound, the “blood glucose decreased (OGTT)” value ([2]; at 2 hr, compared to db/db control) was 22.9%, the “blood glucose decreased (OGTT)” value ([2]; at 3 hr, compared to db/db control) was 28.5% and the “blood glucose decreased (OGTT)” value ([2]; from 1 hr, compared to blood glucose increased at 0.5 hr in db/db control) was 33.1%.
